In ChEMBL document CHEMBL1201862, “PubChem BioAssay data set” (2004):
Calls of active or inactive are those of the source.

What was measured:
[1] = biological target: T1, Hexokinase (Trypanosoma brucei, UniProt Q38C41); experiment: Confirmation assay for inhibitors of Trypanosoma brucei hexokinase 1-Analogue-first series. [Related pubchem assays (depositor defined):AID1430, AID1632, AID2516, AID2560, AID2579, AID2600, AID449725, AID492951]; format: functional
T1 sequence (Q38C41 whole entry): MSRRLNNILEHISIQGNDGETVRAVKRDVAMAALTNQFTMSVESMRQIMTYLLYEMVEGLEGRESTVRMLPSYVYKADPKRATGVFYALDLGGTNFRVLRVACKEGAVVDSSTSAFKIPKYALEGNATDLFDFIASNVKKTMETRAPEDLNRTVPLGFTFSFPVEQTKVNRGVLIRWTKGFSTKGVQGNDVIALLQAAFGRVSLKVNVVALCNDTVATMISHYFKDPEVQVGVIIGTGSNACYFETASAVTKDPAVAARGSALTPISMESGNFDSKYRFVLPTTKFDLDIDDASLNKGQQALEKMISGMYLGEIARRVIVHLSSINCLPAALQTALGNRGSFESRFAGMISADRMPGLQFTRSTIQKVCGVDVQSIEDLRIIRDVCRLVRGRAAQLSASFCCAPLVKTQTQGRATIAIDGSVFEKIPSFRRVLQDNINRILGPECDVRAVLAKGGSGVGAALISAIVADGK

[2] = biological target: T2, Neuropeptide Y receptor type 1 (Homo sapiens, UniProt P25929); format: functional;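 also: HEK293 cells with a CNG channel challenged with NPY then isoproterenol; potency as antagonist that reverses NPY suppression of cAMP signal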
T2 sequence (P25929 whole entry): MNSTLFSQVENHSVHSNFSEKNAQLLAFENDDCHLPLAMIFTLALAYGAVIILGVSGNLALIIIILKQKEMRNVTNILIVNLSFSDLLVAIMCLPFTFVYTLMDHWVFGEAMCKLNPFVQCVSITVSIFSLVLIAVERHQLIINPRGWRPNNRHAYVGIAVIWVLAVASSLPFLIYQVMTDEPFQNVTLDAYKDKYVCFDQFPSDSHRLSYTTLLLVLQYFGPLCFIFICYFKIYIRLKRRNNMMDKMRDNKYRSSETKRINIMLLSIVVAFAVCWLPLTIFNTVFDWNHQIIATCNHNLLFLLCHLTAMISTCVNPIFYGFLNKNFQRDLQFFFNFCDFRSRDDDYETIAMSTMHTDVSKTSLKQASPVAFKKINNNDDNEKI

[3] = biological target: T3, Neuropeptide Y receptor type 2 (Homo sapiens, UniProt P49146); format: functional, cell-based;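 also: HEK293 cells expressing the receptor and a CNG channel; stimulus was NPY near EC95 followed by isoproterenol to raise cAMP; antagonist potency measured as restoring cAMP signal that NPY suppresses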
T3 sequence (P49146 whole entry): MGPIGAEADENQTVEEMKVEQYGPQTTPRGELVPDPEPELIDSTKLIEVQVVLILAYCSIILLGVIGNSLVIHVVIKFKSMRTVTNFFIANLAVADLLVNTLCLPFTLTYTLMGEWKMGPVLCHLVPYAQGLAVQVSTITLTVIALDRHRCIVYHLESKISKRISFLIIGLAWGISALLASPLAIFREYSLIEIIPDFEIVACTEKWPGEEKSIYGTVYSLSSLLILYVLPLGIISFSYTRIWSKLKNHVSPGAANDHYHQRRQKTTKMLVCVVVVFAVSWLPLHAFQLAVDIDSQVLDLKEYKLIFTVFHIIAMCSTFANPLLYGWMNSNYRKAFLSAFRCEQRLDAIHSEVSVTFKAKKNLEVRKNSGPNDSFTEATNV

[4] = biological target: Peroxisome proliferator-activated receptor gamma/Nuclear receptor coactivator 2 (Homo sapiens, UniProt P37231); format: functional;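 also: agonist potency for raising coactivator recruitment to the receptor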
[5] = biological target: Peroxisome proliferator-activated receptor gamma/Nuclear receptor coactivator 1 (Homo sapiens, UniProt P37231); format: functional;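 also: agonist potency as compounds enhance coactivator SRC-1 recruitment to PPARgamma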
[6] = biological target: Peroxisome proliferator-activated receptor gamma/Nuclear receptor coactivator 3 (Homo sapiens, UniProt P37231); format: functional;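 also: agonist potency for raising coactivator recruitment to the receptor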
[7] = biological target: Large T antigen (Simian virus 40, UniProt P03070); format: functional, Betapolyomavirus macacae;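 also: Confirmatory-stage PubChem screen for compounds that inhibit SV40 T antigen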
[8] = viability of PTEN-deleted HCT116 cells – cell-based, HCT116 PTEN knockout, dose response (AID 1047); format: functional;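 also: HCT116 colon tumor cells with PTEN knocked out; cells exposed to compound for 60 hours before readout; potency for loss of cell viability measured by luminescence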
[9] = viability of HCT116 lacking mutant beta-catenin – cell-based, human colon tumor, dose response (AID 1045); format: functional;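 also: HCT116 colon tumor cells with beta catenin knocked out; cells exposed to compound for 60 hours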
[10] = Luminescence Cell-Based Dose Retest to Confirm Inhibitors of Cancer Stem Cells. [Related pubchem assays (depositor defined):AID2717, AID2721]; format: functional, Homo sapiens; settings: Homo sapiens
[11] = system: INS1; experiment: INS-1E survival protection against cytokine death – cell-based, luminescence, retest, dose response (AID 449756); format: functional; settings: Rattus norvegicus;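 also: cell death triggered by IL-1 beta plus TNF-alpha plus IFN-gamma mixture; protective hits raise ATP signal compared with cytokine alone wells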
[12] = biological target: T4, Tyrosine-protein phosphatase non-receptor type 7 (Homo sapiens, UniProt P35236); format: functional
T4 sequence (P35236 whole entry): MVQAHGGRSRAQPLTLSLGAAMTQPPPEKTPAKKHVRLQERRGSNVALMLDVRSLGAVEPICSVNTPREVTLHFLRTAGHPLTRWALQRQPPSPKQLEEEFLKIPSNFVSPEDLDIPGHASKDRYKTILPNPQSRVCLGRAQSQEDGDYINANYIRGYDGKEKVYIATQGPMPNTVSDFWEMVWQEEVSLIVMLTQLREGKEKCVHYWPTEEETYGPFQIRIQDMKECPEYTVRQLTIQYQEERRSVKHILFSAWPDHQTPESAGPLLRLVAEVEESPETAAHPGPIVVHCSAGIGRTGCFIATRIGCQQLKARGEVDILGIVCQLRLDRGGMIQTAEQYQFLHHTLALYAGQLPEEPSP

[13] = biological target: Glyceraldehyde-3-phosphate dehydrogenase (Homo sapiens, UniProt P04406)
[14] = biological target: T5, Dual specificity protein phosphatase 6 (Rattus norvegicus, UniProt Q64346)
T5 sequence (Q64346 whole entry): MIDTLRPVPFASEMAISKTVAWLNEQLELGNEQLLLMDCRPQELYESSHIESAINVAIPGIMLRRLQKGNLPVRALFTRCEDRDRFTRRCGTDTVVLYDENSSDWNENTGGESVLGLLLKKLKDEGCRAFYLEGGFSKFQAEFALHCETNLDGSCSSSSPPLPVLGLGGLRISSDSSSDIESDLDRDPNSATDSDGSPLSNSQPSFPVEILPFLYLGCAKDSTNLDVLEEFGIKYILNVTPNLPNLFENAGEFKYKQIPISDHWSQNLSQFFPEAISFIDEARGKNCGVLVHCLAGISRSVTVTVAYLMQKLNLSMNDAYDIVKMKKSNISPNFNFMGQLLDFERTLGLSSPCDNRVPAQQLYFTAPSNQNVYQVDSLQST

[15] = biological target: T5, Dual specificity protein phosphatase 6; format: functional
[16] = biological target: T6, Alkaline phosphatase, tissue-nonspecific isozyme (Homo sapiens, UniProt P05186); experiment: potency against alkaline phosphatase TNAP – biochemical, luminescent, dose response, SAR follow-up (AID 1056)
T6 sequence (P05186 whole entry): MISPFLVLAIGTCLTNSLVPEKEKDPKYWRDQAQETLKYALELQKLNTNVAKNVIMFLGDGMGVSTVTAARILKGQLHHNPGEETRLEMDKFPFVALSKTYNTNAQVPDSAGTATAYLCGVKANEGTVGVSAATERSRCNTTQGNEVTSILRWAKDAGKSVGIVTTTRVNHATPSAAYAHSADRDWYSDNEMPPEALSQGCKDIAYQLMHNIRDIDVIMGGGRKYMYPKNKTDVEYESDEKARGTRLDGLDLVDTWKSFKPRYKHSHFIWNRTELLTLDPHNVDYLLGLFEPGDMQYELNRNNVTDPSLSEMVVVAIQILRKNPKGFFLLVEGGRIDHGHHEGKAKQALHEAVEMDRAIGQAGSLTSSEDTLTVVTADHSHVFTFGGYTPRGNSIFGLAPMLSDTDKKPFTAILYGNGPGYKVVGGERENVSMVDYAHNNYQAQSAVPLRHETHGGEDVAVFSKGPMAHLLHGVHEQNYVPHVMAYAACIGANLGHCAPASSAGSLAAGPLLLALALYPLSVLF

[17] = biological target: DNA dC->dU-editing enzyme APOBEC-3A (Homo sapiens, UniProt P31941); experiment: Dose Response confirmation of small molecule APOBEC3A DNA Deaminase Inhibitors via a fluorescence-based single-stranded DNA deaminase assay. [Related pubchem assays (depositor defined):AID493011, AID493024]; format: functional
[18] = biological target: DNA dC->dU-editing enzyme APOBEC-3G (Homo sapiens, UniProt Q9HC16); format: functional;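 also: Dose-response counterscreen measuring inhibition of APOBEC3G DNA deaminase activity, run while confirming APOBEC3A inhibitors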
[19] = system: Vero; experiment: mammalian cell viability reduction – secondary assay, cytotoxicity control for West Nile virus antiviral project, dose response (AID 1650); format: functional, Chlorocebus sabaeus; settings: Chlorocebus sabaeus, Vero
[20] = biological target: Induced myeloid leukemia cell differentiation protein Mcl-1 (Homo sapiens, UniProt Q07820); format: functional
[21] = THP-1 cell cytotoxicity, dose response, cytotoxicity control for non-replicating M. tuberculosis project (AID 489025); format: functional
[22] = HepG2 cell cytotoxicity, dose response, cytotoxicity control for non-replicating M. tuberculosis project (AID 489018); format: functional; settings: Mycobacterium tuberculosis
[23] = Vero E6 cell cytotoxicity, dose response, cytotoxicity control for non-replicating M. tuberculosis project, secondary assay (AID 492998); format: functional, VeroE6; settings: Vero C1008
[24] = cells; format: functional
[25] = biological target: T7, Corticotropin-releasing factor receptor 2/Corticotropin-releasing factor-binding protein (Homo sapiens, UniProt P24387+Q13324); experiment: Dose Response confirmation of uHTS hits for small molecule antagonists of the CRF-binding protein and CRF-R2 receptor complex.; format: functional; settings: read-out: IC50_Mean
T7 sequence (Q13324 whole entry): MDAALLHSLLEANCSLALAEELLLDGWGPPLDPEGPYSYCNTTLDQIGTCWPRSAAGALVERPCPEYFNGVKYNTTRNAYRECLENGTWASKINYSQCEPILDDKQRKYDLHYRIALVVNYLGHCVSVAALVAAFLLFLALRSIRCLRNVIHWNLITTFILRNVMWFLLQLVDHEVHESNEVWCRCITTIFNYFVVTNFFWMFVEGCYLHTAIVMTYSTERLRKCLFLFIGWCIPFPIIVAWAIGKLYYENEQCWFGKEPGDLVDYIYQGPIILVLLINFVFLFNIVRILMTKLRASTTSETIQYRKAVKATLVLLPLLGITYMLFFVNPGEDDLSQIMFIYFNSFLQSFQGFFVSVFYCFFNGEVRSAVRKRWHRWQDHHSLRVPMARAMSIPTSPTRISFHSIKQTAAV
T7 sequence (P24387 whole entry): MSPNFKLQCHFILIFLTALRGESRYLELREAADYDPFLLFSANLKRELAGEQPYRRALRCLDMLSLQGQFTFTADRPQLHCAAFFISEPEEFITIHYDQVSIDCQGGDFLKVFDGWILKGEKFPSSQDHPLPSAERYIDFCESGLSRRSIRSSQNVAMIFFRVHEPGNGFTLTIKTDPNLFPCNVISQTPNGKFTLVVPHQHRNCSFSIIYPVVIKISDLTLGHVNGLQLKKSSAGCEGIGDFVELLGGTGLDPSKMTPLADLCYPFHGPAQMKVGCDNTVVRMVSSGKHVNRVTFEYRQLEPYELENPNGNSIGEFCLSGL

[26] = biological target: T7, Corticotropin-releasing factor receptor 2/Corticotropin-releasing factor-binding protein; experiment: activators of CRF receptor 2 with binding protein – uHTS hits, confirmation (AID 602473); format: functional; settings: read-out: EC50_Mean
[27] = biological target: T8, Cytochrome P450 3A4 (Homo sapiens, UniProt P08684);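 also: CYP3A4 tested as one member of a cytochrome P450 panel screen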
[28] = biological target: T8, Cytochrome P450 3A4; remark: listed apart in the source

Sequence of Peroxisome proliferator-activated receptor gamma/Nuclear receptor coactivator 1 (P37231 whole entry): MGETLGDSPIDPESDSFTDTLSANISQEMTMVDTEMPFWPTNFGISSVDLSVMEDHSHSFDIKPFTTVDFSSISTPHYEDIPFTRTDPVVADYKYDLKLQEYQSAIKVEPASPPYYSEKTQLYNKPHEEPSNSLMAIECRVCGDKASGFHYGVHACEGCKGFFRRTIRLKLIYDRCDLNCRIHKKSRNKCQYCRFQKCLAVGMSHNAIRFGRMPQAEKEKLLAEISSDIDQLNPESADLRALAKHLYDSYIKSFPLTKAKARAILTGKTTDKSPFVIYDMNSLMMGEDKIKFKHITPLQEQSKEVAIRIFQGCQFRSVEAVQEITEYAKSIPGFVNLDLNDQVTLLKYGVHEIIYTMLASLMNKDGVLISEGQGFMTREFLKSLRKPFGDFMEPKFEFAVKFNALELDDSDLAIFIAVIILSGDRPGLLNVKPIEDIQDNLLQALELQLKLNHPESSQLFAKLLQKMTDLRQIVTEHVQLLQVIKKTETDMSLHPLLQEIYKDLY
Sequence of Peroxisome proliferator-activated receptor gamma/Nuclear receptor coactivator 1 (Q15788 whole entry, further chain): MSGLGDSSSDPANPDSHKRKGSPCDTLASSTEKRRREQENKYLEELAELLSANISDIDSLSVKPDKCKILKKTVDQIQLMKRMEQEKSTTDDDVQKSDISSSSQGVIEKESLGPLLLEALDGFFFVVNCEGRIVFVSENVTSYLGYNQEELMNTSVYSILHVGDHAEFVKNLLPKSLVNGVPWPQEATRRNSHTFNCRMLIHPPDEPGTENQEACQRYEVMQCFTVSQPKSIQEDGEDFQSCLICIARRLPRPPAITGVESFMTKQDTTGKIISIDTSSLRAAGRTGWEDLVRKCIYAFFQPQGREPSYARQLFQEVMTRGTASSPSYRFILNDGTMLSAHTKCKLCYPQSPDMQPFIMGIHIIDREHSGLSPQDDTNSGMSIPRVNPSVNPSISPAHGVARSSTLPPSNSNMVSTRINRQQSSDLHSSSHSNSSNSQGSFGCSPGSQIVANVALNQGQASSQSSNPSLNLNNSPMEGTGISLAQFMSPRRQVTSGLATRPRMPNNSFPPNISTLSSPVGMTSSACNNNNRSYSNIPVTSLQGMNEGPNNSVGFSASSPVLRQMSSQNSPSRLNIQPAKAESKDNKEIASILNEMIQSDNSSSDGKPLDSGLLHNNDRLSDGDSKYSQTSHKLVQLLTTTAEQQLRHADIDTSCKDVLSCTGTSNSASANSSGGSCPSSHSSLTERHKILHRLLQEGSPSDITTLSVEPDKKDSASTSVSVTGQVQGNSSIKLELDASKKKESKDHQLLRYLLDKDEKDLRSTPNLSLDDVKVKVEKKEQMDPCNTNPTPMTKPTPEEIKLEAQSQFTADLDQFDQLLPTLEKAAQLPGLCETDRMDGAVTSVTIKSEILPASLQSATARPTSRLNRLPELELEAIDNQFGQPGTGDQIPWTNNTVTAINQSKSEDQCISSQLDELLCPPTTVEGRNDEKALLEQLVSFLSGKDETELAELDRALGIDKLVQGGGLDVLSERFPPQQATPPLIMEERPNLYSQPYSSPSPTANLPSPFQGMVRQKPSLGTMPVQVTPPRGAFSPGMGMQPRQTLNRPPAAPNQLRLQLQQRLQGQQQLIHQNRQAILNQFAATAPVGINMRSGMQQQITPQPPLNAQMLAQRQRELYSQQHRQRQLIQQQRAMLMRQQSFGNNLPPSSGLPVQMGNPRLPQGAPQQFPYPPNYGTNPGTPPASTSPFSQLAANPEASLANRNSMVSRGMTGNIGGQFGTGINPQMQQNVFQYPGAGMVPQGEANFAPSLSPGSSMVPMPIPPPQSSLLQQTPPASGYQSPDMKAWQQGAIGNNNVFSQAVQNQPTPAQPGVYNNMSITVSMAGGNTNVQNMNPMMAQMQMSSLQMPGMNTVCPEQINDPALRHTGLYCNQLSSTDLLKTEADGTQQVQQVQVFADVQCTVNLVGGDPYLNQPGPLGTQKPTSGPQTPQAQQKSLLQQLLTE
Sequence of Peroxisome proliferator-activated receptor gamma/Nuclear receptor coactivator 3 (P37231 whole entry): as the sequence (P37231 whole entry) above
Sequence of Peroxisome proliferator-activated receptor gamma/Nuclear receptor coactivator 3 (Q9Y6Q9 whole entry, further chain): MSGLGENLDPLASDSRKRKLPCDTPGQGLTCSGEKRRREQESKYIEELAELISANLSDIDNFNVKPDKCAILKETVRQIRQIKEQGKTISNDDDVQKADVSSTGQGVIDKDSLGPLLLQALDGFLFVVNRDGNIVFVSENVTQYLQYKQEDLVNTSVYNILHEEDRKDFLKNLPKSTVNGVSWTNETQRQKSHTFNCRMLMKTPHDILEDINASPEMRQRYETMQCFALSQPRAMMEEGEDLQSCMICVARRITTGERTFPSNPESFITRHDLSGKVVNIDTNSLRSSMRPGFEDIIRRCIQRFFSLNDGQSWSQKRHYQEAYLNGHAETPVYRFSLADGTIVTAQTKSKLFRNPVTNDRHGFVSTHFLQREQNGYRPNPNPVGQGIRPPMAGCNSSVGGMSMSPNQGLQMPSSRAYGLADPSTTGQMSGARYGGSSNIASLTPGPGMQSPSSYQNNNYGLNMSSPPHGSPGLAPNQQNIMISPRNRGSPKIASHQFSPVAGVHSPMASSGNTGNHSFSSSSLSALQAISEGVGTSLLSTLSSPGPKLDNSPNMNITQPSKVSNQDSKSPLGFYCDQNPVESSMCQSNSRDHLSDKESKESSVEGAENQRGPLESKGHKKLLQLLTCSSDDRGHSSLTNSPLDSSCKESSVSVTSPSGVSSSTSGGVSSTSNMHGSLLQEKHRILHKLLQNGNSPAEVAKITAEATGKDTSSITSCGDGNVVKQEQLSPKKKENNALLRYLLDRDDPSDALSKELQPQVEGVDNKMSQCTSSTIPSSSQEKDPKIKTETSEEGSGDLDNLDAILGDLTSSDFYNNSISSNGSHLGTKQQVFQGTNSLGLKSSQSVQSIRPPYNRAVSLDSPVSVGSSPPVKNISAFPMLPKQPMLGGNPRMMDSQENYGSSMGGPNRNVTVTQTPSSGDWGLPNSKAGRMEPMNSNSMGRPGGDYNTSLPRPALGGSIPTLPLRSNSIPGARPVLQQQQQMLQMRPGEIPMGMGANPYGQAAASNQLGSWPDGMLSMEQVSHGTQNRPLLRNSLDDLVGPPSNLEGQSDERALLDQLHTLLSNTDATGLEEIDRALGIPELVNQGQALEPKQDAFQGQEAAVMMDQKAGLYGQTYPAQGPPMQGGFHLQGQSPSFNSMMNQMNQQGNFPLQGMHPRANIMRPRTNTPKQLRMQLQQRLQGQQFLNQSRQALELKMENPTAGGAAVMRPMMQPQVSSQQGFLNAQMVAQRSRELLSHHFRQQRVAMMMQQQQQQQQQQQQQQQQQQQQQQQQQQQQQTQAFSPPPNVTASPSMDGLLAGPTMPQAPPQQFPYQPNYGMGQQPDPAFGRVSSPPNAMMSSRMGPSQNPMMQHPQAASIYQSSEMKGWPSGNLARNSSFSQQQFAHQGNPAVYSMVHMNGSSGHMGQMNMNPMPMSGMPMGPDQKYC
T8 sequence (P08684 whole entry): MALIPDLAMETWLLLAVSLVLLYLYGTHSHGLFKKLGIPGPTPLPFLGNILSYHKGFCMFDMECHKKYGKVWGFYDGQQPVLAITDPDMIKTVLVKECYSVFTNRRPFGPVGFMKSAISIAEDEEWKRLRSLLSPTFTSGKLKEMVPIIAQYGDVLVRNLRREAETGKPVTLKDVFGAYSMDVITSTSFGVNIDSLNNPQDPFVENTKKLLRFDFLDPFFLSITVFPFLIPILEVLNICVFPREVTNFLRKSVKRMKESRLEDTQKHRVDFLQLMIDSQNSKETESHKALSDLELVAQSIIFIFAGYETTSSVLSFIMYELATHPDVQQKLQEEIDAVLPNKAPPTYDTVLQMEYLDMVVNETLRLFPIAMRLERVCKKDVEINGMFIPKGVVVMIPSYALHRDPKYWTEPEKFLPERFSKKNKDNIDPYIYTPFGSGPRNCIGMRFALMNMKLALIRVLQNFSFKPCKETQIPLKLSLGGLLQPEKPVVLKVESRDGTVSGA
Sequence of Glyceraldehyde-3-phosphate dehydrogenase (P04406 whole entry): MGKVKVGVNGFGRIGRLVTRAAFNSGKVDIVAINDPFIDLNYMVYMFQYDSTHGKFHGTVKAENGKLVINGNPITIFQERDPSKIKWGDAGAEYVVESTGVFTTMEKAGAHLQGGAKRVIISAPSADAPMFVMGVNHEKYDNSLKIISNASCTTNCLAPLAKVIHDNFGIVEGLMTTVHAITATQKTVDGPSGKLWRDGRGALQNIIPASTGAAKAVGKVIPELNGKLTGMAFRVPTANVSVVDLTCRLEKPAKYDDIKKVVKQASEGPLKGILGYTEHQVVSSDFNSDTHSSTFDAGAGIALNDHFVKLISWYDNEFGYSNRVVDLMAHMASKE
Sequence of DNA dC->dU-editing enzyme APOBEC-3A (P31941 whole entry): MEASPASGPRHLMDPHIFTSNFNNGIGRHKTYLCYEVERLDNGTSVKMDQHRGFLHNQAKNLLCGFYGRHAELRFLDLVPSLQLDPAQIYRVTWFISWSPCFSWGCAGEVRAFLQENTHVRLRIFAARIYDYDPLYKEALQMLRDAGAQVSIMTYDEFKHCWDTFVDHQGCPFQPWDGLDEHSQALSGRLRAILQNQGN

## COc1ccc(C(=O)Nc2cc(Cl)ccc2C(=O)O)cn1
[1]
  IC50: > 25 µM (inactive)

## O=C(CSCc1ccc(Cl)cc1)N/N=C/c1c(Cl)cccc1Cl
[2]
  IC50: 8.3 µM (active)
[3]
  IC50: 6.47 µM (active)

## COc1cc(SC#N)ccc1/N=C/c1c(C)[nH]n(-c2ccc(C)cc2)c1=O
[4]
  EC50: > 79.4 µM (not active)
[5]
  EC50: > 79.4 µM (not active)
[6]
  EC50: > 79.4 µM (not active)
[7]
  IC50: 21.2 µM (active)
[8]
  EC50: 56.6 µM (active)
[9]
  EC50: 107 µM (active)
[10]
  AC50: 2.9 µM (active)
[11]
  AC50: 3.6 µM (active)

## CCn1c(=O)n(Cc2ccc([N+](=O)[O-])cc2)c(=O)n([C@@H](Cc2ccccc2)C(=O)O)c1=O
[12]
  IC50: > 100 µM (not active)
[13]
  IC50: > 100 µM (not active)
[14]
  IC50: > 100 µM (inactive)
[15]
  IC50: > 100 µM (inactive)

## O=S(=O)(Nc1cnc2ccccc2c1)c1cc(Cl)ccc1Cl
[13]
  IC50: > 100 µM (not active)
[16]
  IC50: 49.6 µM (active)

## O=C(O)c1ccc(Cl)cc1NC(=O)C1CCOCC1
[1]
  IC50: > 25 µM (inactive)

## C[N+]1(CC(O)COc2ccccc2)CCN(C(=O)c2ccc([N+](=O)[O-])cc2)CC1 (stereo not drawn)
[17]
  IC50: 2.82 µM (active)
[18]
  IC50: 3.44 µM (active)

## COc1ccccc1C(=O)Nc1cccc(-c2cn3ccsc3n2)c1
[4]
  EC50: > 79.4 µM (not active)
[5]
  EC50: > 79.4 µM (not active)
[6]
  EC50: > 79.4 µM (not active)

## Cc1cc2ncn(/N=C/c3ccc([N+](=O)[O-])s3)c2cc1C
[19]
  CC50: 18.5 µM (active)
[8]
  EC50: 3.36 µM (active)
[9]
  EC50: 3.33 µM (active)
[20]
  IC50: 3.27 µM (active)
[21]
  CC50: 6.75 µM (active)
[22]
  CC50: 14 µM (active)
[23]
  CC50: 17.1 µM (active)
[24]
  IC50: 1.25 µM (active)

## C/C(=N\OC(=O)c1ccc(OC(C)C)cc1)c1ccc(C)c(C)c1
[2]
  IC50: 7.08 µM (active)
[3]
  IC50: 7.94 µM (active)
[25]
  IC50: > 47.1 µM (inactive)
[26]
  EC50: > 53 µM (inactive)

## CC(C)(C)c1ccc(C(=O)Nc2cc(Cl)ccc2C(=O)O)cc1
[1]
  IC50: 2.12 µM (active)

## CCc1ccc2c(c1)Sc1ccccc1CC2N1CCN(C)CC1 (stereo not drawn)
[21]
  CC50: 15.8 µM (active)
[22]
  CC50: > 20 µM (active)
[23]
  CC50: > 20 µM (active)
[24]
  IC50: 14.1 µM (active)

## Nc1c2c(nc3sc4c(c13)CCCC4)CCCCCC2
[2]
  IC50: 26.7 µM (not active)
[3]
  IC50: > 35 µM (not active)

## Cc1nc(SCC(=O)c2ccc(Cl)s2)c2oc3ccccc3c2n1
[4]
  EC50: > 79.4 µM (not active)
[5]
  EC50: > 79.4 µM (not active)
[6]
  EC50: > 79.4 µM (not active)
[19]
  CC50: 23.6 µM (active)
[27]
  AC50: 2.82 µM (inconclusive)

## COC(=O)N1CCC2(CC1)CN(c1ccccc1)C2
[28]
  AC50: inconclusive
